Data published in paper PMC2816717, “Active Fragments from Pro- and Antiapoptotic BCL-2 Proteins Have Distinct Membrane Behavior Reflecting Their Functional Divergence” (PLoS ONE, 2010).

Tests used:
[1] = Langmuir monolayer penetration assay, lipid mixture not singled out (Figure 5); assay type: physicochemical; conditions: Figure 5A; πi 5 mN/m, peptide 0.2 µM, Hepes pH 7.4, duplicate
Excerpt: (§1) For the biophysical characterization of membrane active protein fragments, we have used Langmuir monolayers as in vitro model of lipid membranes. These supramolecular lipid films formed at the air-water interface are attractive membrane models, widely used for studying peptide-lipid interactions, [56], [57]. We have investigated the binding of peptides derived from the central helices of BAX, BCL-xL and BID at physiological pH with model phospholipid monolayers of a composition that imitates mitochondrial membranes. For this purpose we selected fragments encompassing the sequences corresponding to the first or second α-helices of the core hairpins of BAX, BCL-xL and BID, as defined in the water-soluble protein structures, [17], [19]. Because the structures of those proteins in a membrane environment is currently unavailable, for the case of the first hairpin helix of BAX and BCL-xL (α5) we analyzed both a short version (labeled “S”), including only the reported α-helical residues, and a long version (labeled “L”) that extends a few residues beyond the α-helix stretch at both ends. Divergence of the BID sequence precluded unambiguous alignment with the other two proteins and a similar peptide design. Peptides corresponding to the BH3 domain of BAX, BCL-xL and BID were also included in the study. The sequence and some general properties of the peptides analyzed in this study are described in Table 1 and Figure 1). Lipid mixtures of POPC/DOPE (2∶1) and POPC/DOPE/CL (1∶1∶1) were chosen to mimic the MOM and the contact sites between inner and outer mitochondrial membrane (MIM/MOM), respectively. Penetration assays were carried out at constant area by spreading the lipids at the air-buffer interface, compressing the film at πi = […] and then injecting the peptides into the subphase at a concentration of 0.2 µM (see Material and Methods). Subsequent peptide binding results typically in an increase of surface pressure. Thus, the peptide-monolayer interaction can be characterized by measurable kinetic properties, such as the initial velocity of surface pressure increase (Vi), which informs about the affinity of the peptide for the lipid-water interface, and the final increase of surface pressure (πmax), which can be related to the insertion ability of the peptide into the monolayer.
Figure 5 Changes in surface pressure after peptide injection. Peptides were injected underneath POPC/DOPE or POPC/DOPE/CL monolayers at constant area. A. Final increase of surface pressure πmax (mN/m) obtained for the different peptides. The dashed line denotes the threshold (Δπ = 4.8 mN/m) for significant surface pressure variation as determined using BAX-α5S without lipids (see text). B. Initial velocity of surface pressure increase (Vi = Δπ/s).
(§2) Monolayer experiments were performed on a computer-controlled Langmuir film balance (KSV 2000, three multi-compartment system, KSV Instrument Ltd., Finland) working in a symmetrical compression mode and enclosed in an opaque cabinet. The rectangular trough (V = 85 mL ±1 mL, S = 119.25 cm^2) was made of Teflon and the mobile barriers were made in Delrin. The surface pressure, π defined as γ0 – γ, where γ0 is the surface tension of the pure aqueous subphase and γ the surface tension exerted by phospholipids at the subphase surface, was measured by the Wilhelmy's method using a platinum plate with an accuracy of ±0.05 mN/m. The trough was filled with Hepes buffer (pH 7.4), used as subphase and thermostated with a water circulating bath (Lauda E100, LAUDA France, SARL). In all experiments, the subphase temperature was maintained at a constant value of 22.5±0.5°C.
Phospholipid monolayers were formed by deposition of 14 µl of spreading solutions at a clean air/buffer interface by means of a micropipette to reach a final amount of 14 nmol of phospholipids. […]

[2] = Langmuir monolayer penetration assay at constant area; assay type: physicochemical; conditions: POPC/DOPE/CL
Excerpt: as §1, §2
Phospholipid monolayers were formed by deposition of 14 µl of spreading solutions at a clean air/buffer interface by means of a micropipette to reach a final amount of 14 nmol of phospholipids. After complete evaporation of the solvent (∼15 min), the monolayer was slowly compressed up to a defined lateral pressure (initial surface pressure πi) at a rate of 0.045 nm^2 molecule^−1 min^−1. The value of πi = 5 mN/m was chosen because it lies between the surface pressure set-off and surface pressures (e.g. 30 mN/m, which corresponds to a tightly packed film) where many peptides of the study will not insert. […]

Sequence: WGRVVALFYFASKLVLKALSTK [BAX-α5S, short peptide of the first helix (α5) of the central hairpin of BAX]
- final increase of surface pressure πmax (insertion), in words [1]: highest increases in surface pressure
- surface pressure increase (Δπ) with lipid monolayer ([2]; initial surface pressure 5 mN/m, peptide 0.2 µM in subphase, Hepes pH 7.4, 22.5°C, constant area): 32.1 mN/m
- πmax (plateau surface pressure after peptide injection) ([2]; πi = 5 mN/m, peptide injected underneath monolayer, compression-decompression experiment): 32.1 mN/m
- exclusion pressure (πex) ([2]; extrapolation of linear Δπ versus πi plot to Δπ = 0): 33 mN/m
